Results from patent US20250051363A1, “Substituted Pyrazolopyridines” (Neuro3 Therapeutics, Inc., priority 2023, published 2025).

target: LRRK2 wild-type (Homo sapiens (Human), UniProt Q5S007); assay: LanthaScreen LRRK2 Biochemical Activity Assay; details: human recombinant LRRK2 (amino acids 970-2527) wild-type, ATP 57 μM, TR-FRET; read-out: IC50 (nM), inhibition of LRRK2 wild-type kinase activity
Description: The ability of a compound of Formula (I) to inhibit LRRK2 kinase activity is measured using a LanthaScreen™ kinase activity assay. In general, in a LanthaScreen™ kinase activity assay, kinase, fluorescein-labeled substrate, and ATP are allowed to react. Then EDTA (to stop the reaction) and terbium-labeled antibody (to detect phosphorylated product) are added. In a LanthaScreen™ kinase reaction, the antibody associates with the phosphorylated fluorescein labeled substrate resulting in an increased TR-FRET value. The TR-FRET value is a dimensionless number that is calculated as the ratio of the acceptor (fluorescein) signal to the donor (terbium) signal. The amount of antibody that is bound to the tracer is directly proportional to the amount of phosphorylated substrate present, and in this manner, kinase activity can be detected and measured by an increase in the TR-FRET value. Accordingly, in this Example, enzyme reactions are carried out in a kinase reaction buffer in the presence or absence of representative compounds of Formula (I) at various concentrations in 384-well plate at room temperature for 60 minutes. The kinase reaction buffer contains human recombinant LRRK2 protein (amino acids 970-2527, 5 nM), ATP (57 μM for LRRK2 wild-type, 134 μM for G2019S mutant protein), Fluorescein-LRRKtide substrate (0.4 mM), 50 mM Tris pH 7.5, 10 mM MgCl2, 1 mM EGTA, 0.01% Brij™-35, and 2 mM DTT. The final reaction volume for each reaction is 10 μL. The reactions are initated by adding the substrate and stopped by the addition of 10 μL of a TR-FRET dilution buffer supplemented with a kinase quench buffer (10 mM EDTA final) and Tb-anti-pLRRKtide (2 nM final). The plate is further incubated at room temperature for another 60 minutes, and the fluorescent signals are read on an EnVision® multilabel plate reader (PerkinElmer, Waltham, MA) with excitation at 340 nm and emission at 495 and 520 nm. The assay signal is determined as a ratio of FRET-specific signal measured with emission filter at 520 nm to that of the signal measured with Tb-specific emission filter at 495 nm. IC50 values for compound-mediated enzyme inhibition are calculated using appropriate programs in GraphPad Prism software by plotting the logarithm of the compound concentrations versus percent inhibition. All reagents are purchased from Thermo Fisher Scientific.

Chain of LRRK2 wild-type (Q5S007 970-2527): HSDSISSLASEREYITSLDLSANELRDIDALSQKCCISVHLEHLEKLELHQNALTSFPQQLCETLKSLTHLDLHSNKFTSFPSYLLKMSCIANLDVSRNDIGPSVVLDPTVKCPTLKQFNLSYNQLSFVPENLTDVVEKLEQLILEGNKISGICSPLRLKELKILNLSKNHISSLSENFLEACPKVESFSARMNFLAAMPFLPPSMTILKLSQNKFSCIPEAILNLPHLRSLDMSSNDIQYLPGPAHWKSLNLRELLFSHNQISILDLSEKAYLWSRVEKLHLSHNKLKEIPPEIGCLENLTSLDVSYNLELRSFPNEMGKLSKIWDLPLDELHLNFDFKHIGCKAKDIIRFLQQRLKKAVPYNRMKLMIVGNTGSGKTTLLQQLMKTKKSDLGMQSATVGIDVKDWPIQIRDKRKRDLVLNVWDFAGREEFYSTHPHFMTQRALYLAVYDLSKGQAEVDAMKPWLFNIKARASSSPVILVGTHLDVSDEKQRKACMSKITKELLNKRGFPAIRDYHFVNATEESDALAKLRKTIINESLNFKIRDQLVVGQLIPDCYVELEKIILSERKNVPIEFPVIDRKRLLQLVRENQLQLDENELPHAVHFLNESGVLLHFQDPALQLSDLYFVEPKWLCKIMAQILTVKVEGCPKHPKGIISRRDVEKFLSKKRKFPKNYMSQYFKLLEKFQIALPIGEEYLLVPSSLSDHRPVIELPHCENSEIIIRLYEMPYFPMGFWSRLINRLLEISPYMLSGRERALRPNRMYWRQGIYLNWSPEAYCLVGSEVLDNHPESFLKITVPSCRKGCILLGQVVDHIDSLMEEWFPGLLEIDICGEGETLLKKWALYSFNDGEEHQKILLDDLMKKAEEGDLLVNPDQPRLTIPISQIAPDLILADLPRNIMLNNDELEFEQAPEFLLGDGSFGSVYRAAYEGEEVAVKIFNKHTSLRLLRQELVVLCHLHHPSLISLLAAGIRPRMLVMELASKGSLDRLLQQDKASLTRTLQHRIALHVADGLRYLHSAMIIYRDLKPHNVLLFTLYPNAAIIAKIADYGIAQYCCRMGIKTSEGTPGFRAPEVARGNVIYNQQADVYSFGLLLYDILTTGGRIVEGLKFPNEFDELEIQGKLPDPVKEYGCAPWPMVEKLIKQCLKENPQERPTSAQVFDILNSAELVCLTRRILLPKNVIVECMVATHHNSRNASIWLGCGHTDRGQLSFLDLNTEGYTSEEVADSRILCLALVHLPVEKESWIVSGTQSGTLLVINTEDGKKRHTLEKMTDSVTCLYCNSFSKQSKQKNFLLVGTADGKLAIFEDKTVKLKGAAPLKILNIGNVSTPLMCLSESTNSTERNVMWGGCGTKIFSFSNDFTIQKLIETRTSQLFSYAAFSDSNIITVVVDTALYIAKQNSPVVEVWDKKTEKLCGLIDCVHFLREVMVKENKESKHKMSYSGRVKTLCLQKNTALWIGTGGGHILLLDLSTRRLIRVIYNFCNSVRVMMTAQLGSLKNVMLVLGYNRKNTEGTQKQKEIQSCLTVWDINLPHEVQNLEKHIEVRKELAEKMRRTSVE

`FC(F)(F)c1ccn2ncc(-c3cc(Cl)cc(C4CCCNC4)n3)c2c1` (stereo not drawn) [Example 36, 3-(4-chloro-6-(piperidin-3-yl)pyridin-2-yl)-5-(trifluoromethyl)pyrazolo[1,5-a]pyridine] and `FC(F)(F)c1ccn2ncc(-c3cc(Cl)cc(N4CCNCC4)n3)c2c1` [Example 41, 3-(4-chloro-6-piperazin-1-yl-2-pyridyl)-5-(trifluoromethyl) pyrazolo[1,5-a]pyridine] fall in the same range of IC50: 11 to 100 nM for the first, 11 to 100 nM for the second.

Compared with `c1cc(-c2cnn3ccccc23)nc(N2CCNCC2)c1` [Example 37, 3-(6-piperazin-1-yl-2-pyridyl)pyrazolo[1,5-a]pyridine], `Clc1ccn2ncc(-c3cccc(N4CCNCC4)n3)c2c1` [Example 42, 5-chloro-3-(6-piperazin-1-yl-2-pyridyl)pyrazolo[1,5-a]pyridine] is lower in IC50: 101 to 400 nM for the first, 11 to 100 nM for the second. The second is the more potent here.

`CNc1ccn2ncc(-c3cccc(N4CCNCC4)n3)c2c1` [Example 38, N-methyl-3-(6-piperazin-1-yl-2-pyridyl)pyrazolo[1,5-a]pyridin-5-amine] and `CNc1ccn2ncc(-c3cc(Cl)cc(N4CCNCC4)n3)c2c1` [Example 39, 3-(4-chloro-6-piperazin-1-yl-2-pyridyl)-N-methyl-pyrazolo[1,5-a]pyridin-5-amine] fall in the same range of IC50: 11 to 100 nM for the first, 11 to 100 nM for the second.

`FC(F)(F)c1ccn2ncc(-c3cccc(N4CCNCC4)n3)c2c1` [Example 40, 3-(6-piperazin-1-yl-2-pyridyl)-5-(trifluoromethyl)pyrazolo[1,5-a]pyridine] and `Fc1cc(-c2cnn3ccc(Cl)cc23)nc(N2CCNCC2)c1` [Example 44, 5-chloro-3-(4-fluoro-6-piperazin-1-yl-2-pyridyl)pyrazolo[1,5-a]pyridine] fall in the same range of IC50: 11 to 100 nM for the first, 11 to 100 nM for the second.

First: Clc1cc(-c2cnn3ccc(Cl)cc23)nc(N2CCNCC2)c1 [Example 43, 5-chloro-3-(4-chloro-6-piperazin-1-yl-2-pyridyl)pyrazolo[1,5-a]pyridine]
Second: Clc1cc(-c2cnn3ccc(Cl)cc23)nc(N2CC3CC(C2)N3)c1 [Example 47, 5-chloro-3-[4-chloro-6-(3,6-diazabicyclo[3.1.1]heptan-3-yl)-2-pyridyl]pyrazolo[1,5-a]pyridine]
The IC50 of the first is lower: 11 to 100 nM for the first, 101 to 400 nM for the second.

First: c1cc(-c2cnn3ccccc23)nc(N2CC3CC(C2)N3)c1 [Example 45, 3-[6-(3,6-Diazabicyclo[3.1.1]heptan-3-yl)-2-pyridyl]pyrazolo[1,5-a]pyridine]
Second: Clc1ccn2ncc(-c3cccc(N4CC5CC(C4)N5)n3)c2c1 [Example 46, 3-(6-(5-chloropyrazolo[1,5-a]pyridin-3-yl)pyridin-2-yl)-3,6-diazabicyclo[3.1.1]heptane]
The IC50 of the first is higher: 101 to 400 nM for the first, 11 to 100 nM for the second.

Compared with `c1cc(-c2cnn3ccccc23)nc(N2CC3CCC2CN3)c1` (stereo not drawn) [Example 48, 3-[6-(2,5-diazabicyclo[2.2.2]octan-2-yl)-2-pyridyl]pyrazolo[1,5-a]pyridine], `C[C@@H]1CN(c2cccc(-c3cnn4ccccc34)n2)C[C@H](C)N1` [Example 49, 3-[6-[(3S,5R)-3,5-dimethylpiperazin-1-yl]-2-pyridyl]pyrazolo[1,5-a]pyridine] is lower in IC50: 101 to 400 nM for the first, 11 to 100 nM for the second. The second is the more potent here.

`C[C@@H]1CN(c2cccc(-c3cnn4ccccc34)n2)C[C@@H](C)N1` [Example 50, 3-[6-[(3R,5R)-3,5-dimethylpiperazin-1-yl]-2-pyridyl]pyrazolo[1,5-a]pyridine] and `C[C@@H]1CN(c2cc(Cl)cc(-c3cnn4ccccc34)n2)C[C@H](C)N1` [Example 51, 3-[4-chloro-6-[(3S,5R)-3,5-dimethylpiperazin-1-yl]-2-pyridyl]pyrazolo[1,5-a]pyridine] fall in the same range of IC50: 11 to 100 nM for the first, 11 to 100 nM for the second.

`C[C@@H]1CN(c2cc(F)cc(-c3cnn4ccccc34)n2)C[C@H](C)N1` [Example 52, 3-[6-[(3R,5S)-3,5-dimethylpiperazin-1-yl]-4-fluoro-2-pyridyl]pyrazolo[1,5-a]pyridine] and `CNc1ccn2ncc(-c3cccc(N4C[C@@H](C)N[C@@H](C)C4)n3)c2c1` [Example 53, 3-[6-[(3S,5R)-3,5-dimethylpiperazin-1-yl]-2-pyridyl]-N-methyl-pyrazolo[1,5-a]pyridin-5-amine] fall in the same range of IC50: 11 to 100 nM for the first, 11 to 100 nM for the second.
